Starred links: 1 amine or outer side, 2 acyl side, 3 side chain; linkers in the order of their positions; H or OH if unused. Non-standard residues stand in square brackets, D forms with d. Residues, ends and D or L forms follow the SMILES beside them. Groups on a side chain read outwards from the residue. *: point of attachment. X7 = CCCCCCCCCCCCCCCC(=O)N[C@@H](CCC(=O)N[C@@H](CCC(=O)N[C@@H](CCC(=O)NCCCOCCOCCOCCCNC(=O)COCC(=O)NCCCOCCOCCOCCCNC(=O)COCC(=O)NCCCOCCOCCOCCCNC(=O)COCC(=O)*)C(=O)O)C(=O)O)C(=O)O; X1 = CCCCCCCCCCCCCCCC(=O)N[C@@H](CCC(=O)N[C@@H](CCC(=O)N[C@@H](CCC(=O)NCCCOCCOCCOCCCNC(=O)CCC(=O)NCCCOCCOCCOCCCNC(=O)CCC(=O)NCCCOCCOCCOCCCN*)C(=O)O)C(=O)O)C(=O)O; γGlu = O=C(O)[C@H](CCC(=O)[*:2])N[*:1]; Palmitoyl = CCCCCCCCCCCCCCCC(=O)*; Suc = O=C(CCC(=O)[*:2])[*:1]; αMeK = C[C@](N)(CCCCN)C(=O)O; hLys = NCCCCC[C@H](N)C(=O)O; AEEA = NCCOCCOCC(=O)O; Aib = CC(C)(N)C(=O)O
Biological target: T1, RXFP1 (Homo sapiens, UniProt Q9HBX9)
T1 construct: OVCAR5 cells expressing endogenous RXFP1; endogenous in cells; host or cells: OVCAR5
T1 sequence (Q9HBX9 1-757): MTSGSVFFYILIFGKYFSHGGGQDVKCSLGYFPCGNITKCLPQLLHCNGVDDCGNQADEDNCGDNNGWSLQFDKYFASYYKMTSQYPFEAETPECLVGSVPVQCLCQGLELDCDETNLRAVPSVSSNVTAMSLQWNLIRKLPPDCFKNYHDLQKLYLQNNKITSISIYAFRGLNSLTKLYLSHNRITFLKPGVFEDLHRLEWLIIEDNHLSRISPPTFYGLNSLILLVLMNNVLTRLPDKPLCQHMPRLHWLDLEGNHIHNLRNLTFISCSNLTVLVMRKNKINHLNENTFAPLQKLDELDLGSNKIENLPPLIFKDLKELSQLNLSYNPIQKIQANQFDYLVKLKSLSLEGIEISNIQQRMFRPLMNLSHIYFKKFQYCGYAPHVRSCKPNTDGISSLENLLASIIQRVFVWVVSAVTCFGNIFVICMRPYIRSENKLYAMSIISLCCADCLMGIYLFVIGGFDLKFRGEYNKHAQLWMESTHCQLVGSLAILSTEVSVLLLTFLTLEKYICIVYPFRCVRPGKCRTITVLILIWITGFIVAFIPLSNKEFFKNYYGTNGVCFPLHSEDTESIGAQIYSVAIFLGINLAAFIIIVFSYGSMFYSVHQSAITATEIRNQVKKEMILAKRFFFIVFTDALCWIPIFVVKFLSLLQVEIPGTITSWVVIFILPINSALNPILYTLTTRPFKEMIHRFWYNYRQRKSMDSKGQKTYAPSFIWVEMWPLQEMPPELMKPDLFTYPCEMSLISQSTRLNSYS
Test: OVCAR5 cAMP assay (HTRF)
Type: cell-based
Settings: for EC50: OVCAR 5 cells expressing endogenous RXFP1, cAMP readout; for Emax: OVCAR 5 cells, maximal cAMP relative to H2-relaxin
Text: OVCAR5 cells expressing endogenous RXFP1 were used to test RXP1 agonist properties of peptides of the invention, and in particular of the peptides of sequence SEQ ID NO: 1-97.
Since RXFP1 is a Gs coupled GPCR, cAMP was used as readout of RXFP1 activation.
Isobutyl Methyl Xanthine (IBMX) was used to inhibit phosphodiesterase activity facilitating cAMP measurements. HTRF (Homogenous Time Resolved Fluorescence) technology was used to detect cAMP due to its great sensitivity.
In summary, OVCAR5 were grown in regular medium (RPMI) containing 10% fetal calf serum (FCS) and 1% antibiotics (penicillin/streptomycin).
Before the experiments, cells were detached with accutase and incubated for 40 minutes at 37° C. with 1 mM (3-isobutyl-1-methylxanthine) IBMX.
Cells were then distributed in 384 black well plates containing increasing concentrations of the different peptides in a fix volume of medium (without FCS).
After an incubation of 30 min at 37° C. in an humid incubator in 5% CO2, the reaction was stopped by adding a fixed volume of a solution containing a lysis buffer and cAMP-D2 (cAMP labeled with the dye d2) and the anti cAMP antibody linked to Europium and used for cAMP detection.
Readout of the experiment were performed on a fluorimeter allowing HTRF measurement. Activation curves were generated by plotting the intracellular value of cAMP versus log 10 of the compound concentration.
The 50% activation concentration (EC50) was calculated by nonlinear regression using the sigmoidal dose-response (variable slope) equation with Prism 5 software.
Emax % was determined as the maximal intracellular value of cAMP for test compound (upper limit of cAMP vs concentration curve) divided by the maximal intracellular value of cAMP for H2-relaxin determined in the same test occasion multiplied by 100. Emax %=100×[cAMPtest cpd]/[cAMPH2-Rlx]

Row | SMILES | EC50 | Emax
1 | CCCCCCCCCCCCCCCC(=O)N[C@@H](CCC(=O)N[C@@H](CCC(=O)N[C@@H](CCC(=O)NCCOCCOCC(=O)NCCOCCOCC(=O)NCCOCCOCC(=O)NCCCC[C@H](NC(=O)CNC(=O)[C@H](CCC(=O)O)NC(=O)C(C)(C)NC(=O)C(C)(C)NC(=O)[C@@H](NC(=O)[C@H](CCCCNC(C)=O)NC(=O)[C@H](C)NC(=O)[C@H](CCCNC(=N)N)NC(=O)[C@@H](NC(=O)[C@H](CCCCN)NC(=O)[C@H](CCC(=O)O)NC(=O)[C@H](CCCNC(=N)N)NC(=O)CNC(=O)[C@H](CCC(=O)O)NC(=O)[C@H](CC(C)C)NC(C)=O)C(C)C)[C@@H](C)CC)C(=O)N[C@@H](CO)C(=O)N[C@H](C(=O)N[C@@H](Cc1c[nH]c2ccccc12)C(=O)N[C@@H](CO)C(=O)NC(C)(C)C(=O)N[C@@H](CCCNC(=N)N)C(=O)N[C@@H](CCCCN)C(=O)N[C@@H](CCCCNC(C)=O)C(N)=O)[C@@H](C)O)C(=O)O)C(=O)O)C(=O)O [compound 19] (Ac-LEGREKVRAK(Ac)I[Aib][Aib]EGK([AEEA-AEEA-AEEA-γGlu-γGlu-γGlu-Palmitoyl])STWS[Aib]RKK(Ac)-NH2) | 11.5 nM | 94%
2 | CCCCCCCCCCCCCCCC(=O)N[C@@H](CCC(=O)N[C@@H](CCC(=O)N[C@@H](CCC(=O)NCCCOCCOCCOCCCNC(=O)COCC(=O)NCCCOCCOCCOCCCNC(=O)COCC(=O)NCCCOCCOCCOCCCNC(=O)COCC(=O)NCCCC[C@H](NC(=O)CNC(=O)[C@H](CCC(=O)O)NC(=O)C(C)(C)NC(=O)C(C)(C)NC(=O)[C@@H](NC(=O)[C@H](CCCCNC(C)=O)NC(=O)[C@H](C)NC(=O)[C@H](CCCNC(=N)N)NC(=O)[C@@H](NC(=O)[C@H](CCCCN)NC(=O)[C@H](CCC(=O)O)NC(=O)[C@H](CCCNC(=N)N)NC(=O)CNC(=O)[C@H](CCC(=O)O)NC(=O)[C@H](CC(C)C)NC(C)=O)C(C)C)[C@@H](C)CC)C(=O)N[C@@H](CO)C(=O)N[C@H](C(=O)N[C@@H](Cc1ccccc1)C(=O)N[C@@H](CO)C(=O)N[C@@](C)(CCCCN)C(=O)N[C@@H](CCCNC(=N)N)C(=O)N[C@@H](C)C(=O)N[C@@H](CCCCNC(C)=O)C(N)=O)[C@@H](C)O)C(=O)O)C(=O)O)C(=O)O [compound 22] (Ac-LEGREKVRAK(Ac)I[Aib][Aib]EGK(X7)STFS[αMeK]RAK(Ac)-NH2) | 1 nM | 92%
3 | CCCCCCCCCCCCCCCC(=O)N[C@@H](CCC(=O)N[C@@H](CCC(=O)N[C@@H](CCC(=O)NCCCOCCOCCOCCCNC(=O)CCC(=O)NCCCOCCOCCOCCCNC(=O)CCC(=O)NCCCOCCOCCOCCCNC(=O)CCC(=O)NCCCC[C@H](NC(=O)CNC(=O)[C@H](CCC(=O)O)NC(=O)C(C)(C)NC(=O)C(C)(C)NC(=O)[C@@H](NC(=O)[C@H](CCCCNC(C)=O)NC(=O)[C@H](C)NC(=O)[C@H](CCCNC(=N)N)NC(=O)[C@@H](NC(=O)[C@H](CCCCCN)NC(=O)[C@H](CCC(=O)O)NC(=O)[C@H](CCCNC(=N)N)NC(=O)CNC(=O)[C@H](CCC(=O)O)NC(=O)[C@H](CC(C)C)NC(C)=O)C(C)C)[C@@H](C)CC)C(=O)N[C@@H](CO)C(=O)N[C@H](C(=O)N[C@@H](Cc1ccccc1)C(=O)N[C@@H](CO)C(=O)N[C@@](C)(CCCCN)C(=O)N[C@@H](CCCNC(=N)N)C(=O)N[C@@H](C)C(=O)N[C@@H](CCCCNC(C)=O)C(N)=O)[C@@H](C)O)C(=O)O)C(=O)O)C(=O)O [compound 28] (Ac-LEGRE[hLys]VRAK(Ac)I[Aib][Aib]EGK([Suc-X1])STFS[αMeK]RAK(Ac)-NH2) | 0.62 nM | 88%

Further compounds by falling EC50, results first:

Row | EC50 | Emax | SMILES
4 | 3.2 nM | 90% | CCCCCCCCCCCCCCCC(=O)N[C@@H](CCC(=O)N[C@@H](CCC(=O)N[C@@H](CCC(=O)NCCCOCCOCCOCCCNC(=O)CCC(=O)NCCCOCCOCCOCCCNC(=O)CCC(=O)NCCCOCCOCCOCCCNC(=O)CCC(=O)NCCCC[C@H](NC(=O)CNC(=O)[C@H](CCC(=O)O)NC(=O)C(C)(C)NC(=O)C(C)(C)NC(=O)[C@@H](NC(=O)[C@H](CCCCNC(C)=O)NC(=O)[C@H](C)NC(=O)[C@H](CCCNC(=N)N)NC(=O)[C@@H](NC(=O)[C@H](CCCCN)NC(=O)[C@H](CCC(=O)O)NC(=O)[C@H](CCCNC(=N)N)NC(=O)CNC(=O)[C@H](CCC(=O)O)NC(=O)[C@H](CC(C)C)NC(C)=O)C(C)C)[C@@H](C)CC)C(=O)N[C@@H](CO)C(=O)N[C@H](C(=O)N[C@@H](Cc1ccccc1)C(=O)N[C@H](CO)C(=O)N[C@@H](CCCCN)C(=O)N[C@@H](CCCNC(=N)N)C(=O)N[C@@H](C)C(=O)N[C@@H](CCCCNC(C)=O)C(N)=O)[C@@H](C)O)C(=O)O)C(=O)O)C(=O)O [compound 14] (Ac-LEGREKVRAK(Ac)I[Aib][Aib]EGK([Suc-X1])STF[dS]KRAK(Ac)-NH2)
5 | 2.1 nM | 85% | CCCCCCCCCCCCCCCC(=O)N[C@@H](CCC(=O)N[C@@H](CCC(=O)N[C@@H](CCC(=O)NCCCOCCOCCOCCCNC(=O)CCC(=O)NCCCOCCOCCOCCCNC(=O)CCC(=O)NCCCOCCOCCOCCCNC(=O)CCC(=O)NCCCC[C@H](NC(=O)CNC(=O)[C@H](CCC(=O)O)NC(=O)C(C)(C)NC(=O)C(C)(C)NC(=O)[C@@H](NC(=O)[C@H](CCCCNC(C)=O)NC(=O)[C@H](C)NC(=O)[C@H](CCCNC(=N)N)NC(=O)[C@@H](NC(=O)[C@H](CCCCN)NC(=O)[C@H](CCC(=O)O)NC(=O)[C@H](CCCNC(=N)N)NC(=O)CNC(=O)[C@H](CCC(=O)O)NC(=O)[C@H](CC(C)C)NC(C)=O)C(C)C)[C@@H](C)CC)C(=O)N[C@@H](CO)C(=O)N[C@H](C(=O)N[C@@H](Cc1ccccc1)C(=O)NC(C)(C)C(=O)N[C@@H](CCCCN)C(=O)N[C@@H](CCCNC(=N)N)C(=O)N[C@@H](C)C(=O)N[C@@H](CCCCNC(C)=O)C(N)=O)[C@@H](C)O)C(=O)O)C(=O)O)C(=O)O [compound 15] (Ac-LEGREKVRAK(Ac)I[Aib][Aib]EGK([Suc-X1])STF[Aib]KRAK(Ac)-NH2)
6 | 1.8 nM | 98% | CCCCCCCCCCCCCCCC(=O)N[C@@H](CCC(=O)N[C@@H](CCC(=O)N[C@@H](CCC(=O)NCCCOCCOCCOCCCNC(=O)CCC(=O)NCCCOCCOCCOCCCNC(=O)CCC(=O)NCCCOCCOCCOCCCNC(=O)CCC(=O)NCCCC[C@H](NC(=O)CNC(=O)[C@H](CCC(=O)O)NC(=O)C(C)(C)NC(=O)C(C)(C)NC(=O)[C@@H](NC(=O)[C@H](CCCCNC(C)=O)NC(=O)[C@H](C)NC(=O)[C@H](CCCNC(=N)N)NC(=O)[C@@H](NC(=O)[C@H](CCCNC(=N)N)NC(=O)[C@H](CCC(=O)O)NC(=O)[C@H](CCCNC(=N)N)NC(=O)CNC(=O)[C@H](CCC(=O)O)NC(=O)[C@H](CC(C)C)NC(C)=O)C(C)C)[C@@H](C)CC)C(=O)N[C@@H](CO)C(=O)N[C@H](C(=O)N[C@@H](Cc1ccccc1)C(=O)N[C@@H](CO)C(=O)N[C@@](C)(CCCCN)C(=O)N[C@@H](CCCNC(=N)N)C(=O)N[C@@H](C)C(=O)N[C@@H](CCCCNC(C)=O)C(N)=O)[C@@H](C)O)C(=O)O)C(=O)O)C(=O)O [compound 27] (Ac-LEGRERVRAK(Ac)I[Aib][Aib]EGK([Suc-X1])STFS[αMeK]RAK(Ac)-NH2)

Reference: patent US11725036B2, “Modified lipidated relaxin B chain peptides and their therapeutic use” (Sanofi, priority 2018, dated 2023)
